Source: PubChem BioAssay AID1259407 (Chemical Carcinogenesis Research Information System (CCRIS), 2018)
The source made the active and inactive calls. How the calls were made is not given here.

Tested on: CCRIS mutagenicity, Ames/micronucleus/aberration tests
Experiment: CCRIS mutagenicity studies
[1] = Test System: AMES SALMONELLA TYPHIMURIUM, Strain/Indicator: TA98, Metabolic Activation: NONE, Method: PREINCUBATION
[2] = Test System: AMES SALMONELLA TYPHIMURIUM, Strain/Indicator: TA98, Metabolic Activation: NONE, Method: STANDARD PLATE
[3] = Test System: AMES SALMONELLA TYPHIMURIUM, Strain/Indicator: TA100, Metabolic Activation: NONE, Method: PREINCUBATION
[4] = Test System: AMES SALMONELLA TYPHIMURIUM, Strain/Indicator: TA100, Metabolic Activation: NONE, Method: STANDARD PLATE
[5] = Test System: AMES SALMONELLA TYPHIMURIUM, Strain/Indicator: TA98, Metabolic Activation: RAT, LIVER, S-9, AROCLOR 1254, Method: STANDARD PLATE
[6] = Test System: AMES SALMONELLA TYPHIMURIUM, Strain/Indicator: TA100, Metabolic Activation: RAT, LIVER, S-9, AROCLOR 1254, Method: STANDARD PLATE
[7] = Test System: AMES SALMONELLA TYPHIMURIUM, Strain/Indicator: TA1535, Metabolic Activation: NONE, Method: STANDARD PLATE
[8] = Test System: AMES SALMONELLA TYPHIMURIUM, Strain/Indicator: TA1535, Metabolic Activation: RAT, LIVER, S-9, AROCLOR 1254, Method: STANDARD PLATE
[9] = Test System: AMES SALMONELLA TYPHIMURIUM, Strain/Indicator: TA1537, Metabolic Activation: NONE, Method: STANDARD PLATE
[10] = Test System: AMES SALMONELLA TYPHIMURIUM, Strain/Indicator: TA1537, Metabolic Activation: RAT, LIVER, S-9, AROCLOR 1254, Method: STANDARD PLATE
[11] = Test System: AMES SALMONELLA TYPHIMURIUM, Strain/Indicator: TA1538, Metabolic Activation: NONE, Method: STANDARD PLATE
[12] = Test System: AMES SALMONELLA TYPHIMURIUM, Strain/Indicator: TA1538, Metabolic Activation: RAT, LIVER, S-9, AROCLOR 1254, Method: STANDARD PLATE

CC[C@]1(O)CC2CN(CCc3c([nH]c4ccccc34)[C@@](C(=O)OC)(c3cc4c(cc3OC)N(C=O)[C@H]3[C@@](O)(C(=O)OC)[C@H](OC(C)=O)[C@]5(CC)C=CCN6CC[C@]43[C@@H]65)C2)C1 (stereo partly specified)
mutagenic call (End Point: In vitro micronucleus, Test System: Human lymphoblastoid TK6 cells, Metabolic Activation: None): active; positive (p<0.001)
mutagenic call (End Point: In vivo micronucleus, Test System: Peripheral blood lymphocytes, Species: Human, Strain/Sex: Workers (6 males and 9 females) and matched controls, Route: Occupational): active; positive, both mean micronuclei rate and mean micronucleated cells rate signific
mutagenic call [1]: inactive; negative
mutagenic call [2]: inactive; negative
mutagenic call (Test System: AMES SALMONELLA TYPHIMURIUM, Strain/Indicator: TA98, Metabolic Activation: S-9, Method: PREINCUBATION): inactive; negative
mutagenic call (Test System: AMES SALMONELLA TYPHIMURIUM, Strain/Indicator: TA98, Metabolic Activation: S-9, Method: STANDARD PLATE): inactive; negative
mutagenic call [3]: inactive; negative
mutagenic call [4]: inactive; negative
mutagenic call (Test System: AMES SALMONELLA TYPHIMURIUM, Strain/Indicator: TA100, Metabolic Activation: S-9, Method: PREINCUBATION): inactive; negative
mutagenic call (Test System: AMES SALMONELLA TYPHIMURIUM, Strain/Indicator: TA100, Metabolic Activation: S-9, Method: STANDARD PLATE): inactive; negative
mutagenic call (Test System: AMES SALMONELLA TYPHIMURIUM, Strain/Indicator: TA1537, Metabolic Activation: S-9, Method: STANDARD PLATE): inactive; negative
mutagenic call (Test System: CHINESE HAMSTER V-79, Strain/Indicator: V-79 (HGPRT)/6-THIOGUANINE, Metabolic Activation: NONE): inactive; negative
mutagenic call (Test System: CHINESE HAMSTER V-79, Strain/Indicator: V-79/6-THIOGUANINE, Metabolic Activation: NONE, Method: SUSPENSION/PLATE): inactive; negative
mutagenic call (Test System: CHINESE HAMSTER V-79, Strain/Indicator: V-79/6-THIOGUANINE, Metabolic Activation: RAT, LIVER, HEPATOCYTES, Method: SUSPENSION/PLATE): inactive; negative
mutagenic call (Test System: E. COLI, Strain/Indicator: WP2 (HCR), Metabolic Activation: NONE, Method: STANDARD PLATE): inactive; negative
mutagenic call (Test System: E. COLI, Strain/Indicator: WP2 (HCR), Metabolic Activation: S-9, Method: STANDARD PLATE): inactive; negative
mutagenic call (Test System: MOUSE LYMPHOMA, Strain/Indicator: L5178Y (TK+/TK-), Metabolic Activation: NONE): active; positive

CCCCCCCCCC/C=C/C1CC(=O)OC1=O (stereo unspecified)
mutagenic call (Test System: AMES SALMONELLA TYPHIMURIUM, Strain/Indicator: TA98, Metabolic Activation: HAMSTER, LIVER, S-9, AROCLOR 1254, Method: STANDARD PLATE): inactive; negative
mutagenic call [2]: inactive; negative
mutagenic call [5]: inactive; negative
mutagenic call (Test System: AMES SALMONELLA TYPHIMURIUM, Strain/Indicator: TA100, Metabolic Activation: HAMSTER, LIVER, S-9, AROCLOR 1254, Method: STANDARD PLATE): inactive; negative
mutagenic call [4]: inactive; negative
mutagenic call [6]: inactive; negative
mutagenic call (Test System: AMES SALMONELLA TYPHIMURIUM, Strain/Indicator: TA1535, Metabolic Activation: HAMSTER, LIVER, S-9, AROCLOR 1254, Method: STANDARD PLATE): inactive; negative
mutagenic call [7]: inactive; negative
mutagenic call [8]: inactive; negative
mutagenic call (Test System: AMES SALMONELLA TYPHIMURIUM, Strain/Indicator: TA1537, Metabolic Activation: HAMSTER, LIVER, S-9, AROCLOR 1254, Method: STANDARD PLATE): inactive; negative
mutagenic call [9]: inactive; negative
mutagenic call [10]: inactive; negative
mutagenic call (Test System: AMES SALMONELLA TYPHIMURIUM, Strain/Indicator: TA1538, Metabolic Activation: HAMSTER, LIVER, S-9, AROCLOR 1254, Method: STANDARD PLATE): inactive; negative
mutagenic call [11]: inactive; negative
mutagenic call [12]: inactive; negative
mutagenic call (Test System: MOUSE LYMPHOMA, Strain/Indicator: L5178Y (TK+/TK-), Metabolic Activation: NONE, Method: SUSPENSION/PLATE): inactive; negative. reevaluation of results: inconclusive
mutagenic call (Test System: MOUSE LYMPHOMA, Strain/Indicator: L5178Y (TK+/TK-), Metabolic Activation: RAT, LIVER, S-9, AROCLOR 1254, Method: SUSPENSION/PLATE): inactive; negative. reevaluation of results: negative

CCCCCCCCCCCCOC(=O)CCSCCC(=O)OCCCCCCCCCCCC
mutagenic call [2]: inactive; negative
mutagenic call [5]: inactive; negative
mutagenic call [4]: inactive; negative
mutagenic call [6]: inactive; negative
mutagenic call [7]: inactive; negative
mutagenic call [8]: inactive; negative
mutagenic call [9]: inactive; negative
mutagenic call [10]: inactive; negative
mutagenic call [11]: inactive; negative
mutagenic call [12]: inactive; negative
mutagenic call (Test System: E. COLI, Strain/Indicator: WP2, Metabolic Activation: NONE, Method: STANDARD PLATE): inactive; negative
mutagenic call (Test System: E. COLI, Strain/Indicator: WP2, Metabolic Activation: RAT, LIVER, S-9, AROCLOR 1254, Method: STANDARD PLATE): inactive; negative

CCCCCCCCC
mutagenic call (Test System: AMES SALMONELLA TYPHIMURIUM, Strain/Indicator: TA97, Metabolic Activation: HAMSTER, LIVER, S-9, AROCLOR 1254 (10 OR 30%), Method: PREINCUBATION): inactive; negative
mutagenic call (Test System: AMES SALMONELLA TYPHIMURIUM, Strain/Indicator: TA97, Metabolic Activation: NONE, Method: PREINCUBATION): inactive; negative
mutagenic call (Test System: AMES SALMONELLA TYPHIMURIUM, Strain/Indicator: TA97, Metabolic Activation: RAT, LIVER, S-9, AROCLOR 1254 (10 OR 30%), Method: PREINCUBATION): inactive; negative
mutagenic call (Test System: AMES SALMONELLA TYPHIMURIUM, Strain/Indicator: TA98, Metabolic Activation: HAMSTER, LIVER, S-9, AROCLOR 1254 (10 OR 30%), Method: PREINCUBATION): inactive; negative
mutagenic call [1]: inactive; negative
mutagenic call (Test System: AMES SALMONELLA TYPHIMURIUM, Strain/Indicator: TA98, Metabolic Activation: RAT, LIVER, S-9, AROCLOR 1254 (10 OR 30%), Method: PREINCUBATION): inactive; negative
mutagenic call (Test System: AMES SALMONELLA TYPHIMURIUM, Strain/Indicator: TA100, Metabolic Activation: HAMSTER, LIVER, S-9, AROCLOR 1254 (10 OR 30%), Method: PREINCUBATION): inactive; negative
mutagenic call [3]: inactive; negative
mutagenic call (Test System: AMES SALMONELLA TYPHIMURIUM, Strain/Indicator: TA100, Metabolic Activation: RAT, LIVER, S-9, AROCLOR 1254 (10 OR 30%), Method: PREINCUBATION): inactive; negative
mutagenic call (Test System: AMES SALMONELLA TYPHIMURIUM, Strain/Indicator: TA1535, Metabolic Activation: HAMSTER, LIVER, S-9, AROCLOR 1254 (10 OR 30%), Method: PREINCUBATION): inactive; negative
mutagenic call (Test System: AMES SALMONELLA TYPHIMURIUM, Strain/Indicator: TA1535, Metabolic Activation: NONE, Method: PREINCUBATION): inactive; negative
mutagenic call (Test System: AMES SALMONELLA TYPHIMURIUM, Strain/Indicator: TA1535, Metabolic Activation: RAT, LIVER, S-9, AROCLOR 1254 (10 OR 30%), Method: PREINCUBATION): inactive; negative
mutagenic call (Test System: AMES SALMONELLA TYPHIMURIUM, Strain/Indicator: TA1537, Metabolic Activation: HAMSTER, LIVER, S-9, AROCLOR 1254 (30%), Method: PREINCUBATION): inactive; negative
mutagenic call (Test System: AMES SALMONELLA TYPHIMURIUM, Strain/Indicator: TA1537, Metabolic Activation: NONE, Method: PREINCUBATION): inactive; negative
mutagenic call (Test System: AMES SALMONELLA TYPHIMURIUM, Strain/Indicator: TA1537, Metabolic Activation: RAT, LIVER, S-9, AROCLOR 1254 (30%), Method: PREINCUBATION): inactive; negative
